Test results as given in patent US10073103B1, “Rapid measurement of total vitamin D in blood” (Theranos, Inc., priority 2013, dated 2018).
Like-named read-outs stand apart in the source and are kept apart here.

Key:
[1] = tested on: antivitamin-D coated microparticles; design: concentration or dose not given beside the values; conditions: as stated in the manufacturer's product insert; cited from earlier work
[2] = tested on: antibody to 25-hydroxy vitamin D; conditions: as stated in the manufacturer's product insert; cited from earlier work
[3] = as stated in the manufacturer's product insert; cited from earlier work
[4] = tested on: anti-25-hydroxy vitamin D antibodies (Ab5H10 and Ab2F4); test: Cross-reactivity test of the present competitive chemiluminescent ELISA in low BSA buffer; format: binding, sheep; conditions: for Cross reactivity as potentially interfering compound (in words): final assay conditions
Procedure: The liquid phase of the assay reaction included the sample (mixed with the sample diluent) and included the anti-vitamin-D antibodies and the alkaline phosphatase (AP) conjugate. As discussed below, in many cases mixtures of two types of anti-vitamin D antibodies were used. For example, in many cases, the anti-vitamin-D antibodies Ab5H10 and Ab2F4 were mixed into the diluted sample (final concentrations 10 ng/mL Ab5H10 and 5 ng/mL Ab2F4), and then the AP conjugate was mixed into the solution that included the sample, the sample diluent, and the anti-vitamin-D antibodies. This liquid mixture was incubated with the capture surface (anti-sheep antibody bound to UltraAvidin™-coated polystyrene).
Vitamin D assay methods using pepsin degradation of vitamin D binding proteins at low pH were then further optimized in subsequent experiments, including experiments performed at an operating temperature of 34° C. […] This sample treatment and assay protocol consisted of a 1:5 dilution of the sample into 10 mg/mL pepsin in 100 mM citrate buffer pH 2.6, followed by a 1:8 dilution into 50 mM TRIS pH 8.0 which brought the pH of the diluted sample to 8.0 and neutralized the pepsin. Then the sheep anti-25-hydroxy vitamin D antibody was added and incubated with the sample for 10 minutes. Following addition of the anti-25-hydroxy vitamin D antibody, the 25-hydroxy vitamin D-AP conjugate was added, resulting in a final sample dilution of 1:50. The mixture was then incubated on the anti-sheep capture surface for 5 minutes, followed by a wash and 5 minute substrate incubation.
1. Sample was diluted 1:5 into 100 mM Citrate buffer pH 2.6 containing 10 mg/mL pepsin and mixed (final pH 3.9) for 5 minutes at 34° C.
2. Treated sample was diluted a further 1:8 into 50 mM TRIS buffer pH 8.0 to permanently deactivate the pepsin, and anti-25-hydroxy vitamin D antibody in a blocking buffer was spiked in and mixed. This mixture was incubated for 10 minutes.
3. The AP-labeled 25-hydroxy vitamin D was added to the sample mixture and then transferred to the capture surface (biotinylated anti-sheep secondary antibody bound to UltraAvidin™-coated polystyrene) and incubated for 5 minutes.
4. The surface was washed six times (1 minute for each wash cycle) with 0.05% Tween20® in 50 mM TBS containing 0.05% sodium azide at pH8.0.
5. The washed capture surface was exposed to enzyme substrate for five minutes and the chemiluminescence was read in an automated luminometer.
Tests were performed in order to determine whether non-target compounds could interfere with the assay results. Such tests, termed “cross-reactivity tests”, measured the change in measured 25-hydroxy vitamin D due to the presence of a non-target substance by comparing the value of 25-hydroxy vitamin D measured by the present methods where a potentially interfering compound was in the sample, as compared to the value of 25-hydroxy vitamin D measured by the present methods in the absence of the potentially interfering compound. Cross reactivity testing was conducted using the final assay conditions in a low BSA buffer matrix (0.03% BSA in TBS). Cross-reactivity was reported in these assays as % recovery=100×([measured vitamin D])/([nominal vitamin D]); [measured vitamin D] is the 25-hydroxy vitamin D concentration measured in the presence of the potentially interfering compound, and [nominal vitamin D] is the 25-hydroxy vitamin D concentration measured in the absence of the potentially interfering compound. […] (Note that an interfering compound would displace labeled 25-hydroxy vitamin D in the competition assays disclosed herein, so that the interfering compound would cause an apparent (erroneous) increase in the measured 25-hydroxy vitamin D.) For comparison, values for 25-hydroxy vitamin D3 (a direct target of the assay, and not a cross-reactant) are presented in the table.

[5] = as stated in the manufacturer's product insert, b197 cites literature, cited from earlier work
[6] = Reagent stability: lyophilized pepsin versus frozen aliquots, compared by vitamin D results on clinical samples; conditions: 10 mg/mL, reconstituted with 100 mM citrate buffer pH 2.6
Procedure: The stability of pepsin in frozen aliquots of aqueous pepsin solution and of dry, lyophilized pepsin (e.g., a lyophilized powder formed from an aqueous pepsin solution) was measured. Pepsin was lyophilized in containers suitable for use when reconstituted, e.g., in an automated assay device. The pepsin was provided in a solution at a concentration of 10 mg/mL and was lyophilized into the containers to obtain the final reconstituted amount and concentration equal to the concentration and amounts used in the assay methods disclosed herein. The containers of lyophilized reagent were placed into cartridges (arrays including several such containers) and the reagent was reconstituted with 100 mM citrate buffer (pH 2.6). Clinical samples were used for comparison, and the vitamin D results were calculated for both conditions based on the standard curve obtained for frozen pepsin/buffer aliquots.

[7] = test substance 50 ng/mL, OORL = out of range - low, below the detection limit
[8] = test substance 50 ng/mL, low BSA buffer
[9] = test substance 100 ng/mL, OORL = out of range - low, below the detection limit
[10] = test substance 100 ng/mL, low BSA buffer
[11] = test substance 150 ng/mL, OORL = out of range - low, below the detection limit
[12] = test substance 150 ng/mL, low BSA buffer (0.03% BSA in TBS)

Row | Compound | Vitamin D metabolite cross reactivity, DiaSorin Liaison 25 OH Vitamin D TOTAL [1] | Vitamin D metabolite cross reactivity, DiaSorin 25-Hydroxyvitamin D 125I RIA [2] | Vitamin D metabolite cross reactivity, Roche Vitamin D3 (25-OH) [3] | Vitamin D metabolite cross reactivity, Present Methods [4] | Cross reactivity as potentially interfering compound (in words) ([4]; low BSA buffer) | Conc., ng/mL Mean (measured 25-hydroxy vitamin D) [4, 7] | Signal, RLU Mean [4, 8] | Conc., ng/mL Mean (measured 25-hydroxy vitamin D) [4, 9] | Signal, RLU Mean [4, 10] | Conc., ng/mL Mean (measured 25-hydroxy vitamin D) [4, 11] | Signal, RLU Mean [4, 12] | Vitamin D metabolite cross reactivity, IDS ELISA kit [5] | other results
1 | C=C1/C(=C\C=C2/CCC[C@]3(C)[C@@H]([C@H](C)/C=C/[C@H](C)C(C)(C)O)CC[C@@H]23)C[C@@H](O)C[C@@H]1O [1.25(OH)2 D2, 1,25-dihydroxy vitamin D2] | 40% | 11% |  |  |  |  |  |  |  |  |  |  | 
2 | C=C1/C(=C\C=C2/CCC[C@]3(C)[C@@H]([C@H](C)CCCC(C)(C)O)CC[C@@H]23)C[C@@H](O)C[C@@H]1O [1α,25-Dihydroxy Vitamin D3, 1α,25-dihydroxy vitamin D3] | 17% | 11% | up to 100% | 70% | Some cross reactivity | 36.5 ng/mL | 7804 RLU | 60.6 ng/mL | 3642 RLU | 107.1 ng/mL | 2352 RLU |  | % Recovery ([4]; test substance 50 ng/mL): 73%; % Recovery ([4]; test substance 100 ng/mL): 61%; % Recovery ([4]; test substance 150 ng/mL): 71%
3 | C=C1CCC(O)C/C1=C\C=C1\CCCC2(C)C1CCC2C(C)CCC(O)C(C)(C)O (stereo not drawn) [24,25-Dihydroxy Vitamin D3, 24,25-dihydroxy vitamin D3] |  |  |  |  | No cross reactivity | OORL | 25059 RLU | OORL | 23735 RLU | OORL | 22992 RLU | >100% | 
4 | C=C1CC[C@H](O)C/C1=C/C=C1\CCC[C@]2(C)[C@@H]([C@H](C)/C=C/[C@H](C)C(C)(C)O)CC[C@@H]12 [25(OH) D2, 25-hydroxy vitamin D2] | 104% | 100% | <10% | 110% |  |  |  |  |  |  |  | 75% | Vitamin D metabolite cross reactivity, IDS ELISA kit ([5]; listed as 25-hydroxy Vitamin D2): 75%
5 | C=C1CC[C@H](O)C/C1=C/C=C1\CCC[C@]2(C)[C@@H]([C@H](C)CCCC(C)(C)O)CC[C@@H]12 [25-Hydroxy vitamin D3, 25-hydroxy vitamin D3] | 100% | 100% | 100% | 100% |  | 55.5 ng/mL | 4044 RLU | 76.5 ng/mL | 2941 RLU | 104.5 ng/mL | 2432 RLU | 100% | % Recovery ([4]; test substance 10 ng/mL): 110%; Conc., ng/mL Mean (measured 25-hydroxy vitamin D) ([4]; test substance 10 ng/mL): 11.0 ng/mL; Signal, RLU Mean ([4]; test substance 10 ng/mL, low BSA buffer): 20071 RLU; % Recovery ([4]; test substance 25 ng/mL): 83%; Conc., ng/mL Mean (measured 25-hydroxy vitamin D) ([4]; test substance 25 ng/mL): 20.8 ng/mL; Signal, RLU Mean ([4]; test substance 25 ng/mL, low BSA buffer): 14076 RLU; % Recovery ([4]; test substance 50 ng/mL): 111%; % Recovery ([4]; test substance 100 ng/mL): 77%; % Recovery ([4]; test substance 150 ng/mL): 70%
6 | C=C1CC[C@H](O)C/C1=C/C=C1\CCC[C@]2(C)[C@@H]([C@H](C)CCCC(C)C)CC[C@@H]12 [Cholecalciferol (Vitamin D3), cholecalciferol] | <1% | 0.8% | <1% | <0.01% | No cross reactivity | OORL | 31046 RLU | OORL | 30864 RLU | OORL | 31607 RLU | <0.01% | 
7 | C=C1CC[C@H](O)C/C1=C/C=C1\CCC[C@]2(C)[C@@H]([C@H](C)/C=C/[C@H](C)C(C)C)CC[C@@H]12 [Ergocalciferol (Vitamin D2), ergocalciferol] | <1% | 0.8% | <1% | <0.01% | No cross reactivity | OORL | 30040 RLU | OORL | 27040 RLU | OORL | 30935 RLU | <0.3% | 
8 | pepsin: porcine gastric mucosa pepsin (Sigma catalog # P7000) |  |  |  |  |  |  |  |  |  |  |  |  | Stability: results with lyophilized reagent versus (thawed) frozen aliquot [6]: no significant differences
